These are literature values, as cited in publication PMC5152921, “Evolutionary and Functional Diversification of the Vitamin D Receptor-Lithocholic Acid Partnership” (PLoS ONE, 2016).

For the series, the system named is all eight VDRs tested. Also on record: method as in PMID 25279795, PMID 25855982. To be noted: transient transactivation assays; cited from earlier work.

As to `C=C1/C(=C\C=C2/CCC[C@]3(C)[C@@H]([C@H](C)CCCC(C)(C)O)CC[C@@H]23)C[C@@H](O)C[C@@H]1O` [1,25D3, 1α,25-dihydroxyvitamin D3], the VDR transactivation entry is “activates all eight VDRs tested”.
